Reference: patent US11015061B2, “Phthalocyanine-based compound and uses of same” (YAMAMOTO CHEMICALS, INC., priority 2017, dated 2021)

Legend:
Assay type in all cases: physicochemical
[1] = Absorption spectrum of toluene solution (maximum absorption, gram absorption coefficient)
Protocol: A toluene solution of the compound obtained in this way had maximum absorption at 734.0 nm, and the gram absorption coefficient thereof was 1.21×10^5 mL/g·cm. The absorption spectrum chart thereof is illustrated in FIG. 1.

[2] = Solubility in organic solvent (cyclopentanone); details: about 10 wt % dispersion, room temperature, 0.2 μm filter; no residue = 10 wt % or more
Protocol: The solubility of the phthalocyanine compound with respect to cyclopentanone was measured by the following method.
Cyclopentanone was added to about 1 g of the phthalocyanine compound such that the total weight thereof became about 10 g, and the obtained solution was irradiated with ultrasonic waves for about 30 minutes and then stirred for 2 hours at room temperature, thereby preparing a dispersion liquid of about 10 wt %.
The dispersion liquid was filtered through a membrane filter (0.2 μm), the substance obtained by filtration was dried for 1 hour in a drier at 60° C., and then the weight of the substance obtained by filtration was measured.
The solubility of the phthalocyanine compound in a solvent is expressed by the following equation. Solubility (wt %)=(W0−W1)/W0
W0 represents the correct weight of the phthalocyanine not yet being treated, and W1 represents the weight of the substance obtained by filtration (dissolved phthalocyanine compound residue) having been dried.

[3] = Visible light transmittance of chloroform solution; details: spectrum converted to transmittance 10% at near-infrared maximum absorption wavelength
Protocol: The visible light transmittance of the phthalocyanine-based compound of the present invention and the comparative example compounds was measured by the following measurement method.
Each of the phthalocyanine compounds ([…]) and approximately 90 mL of chloroform were put into a 100 mL volumetric flask, and the solution in the flask was irradiated with ultrasonic waves for 30 minutes and left to stand for 2 hours at room temperature. Then, chloroform was added thereto such that the meniscus of the solution matched up with the calibration mark on the volumetric flask, thereby preparing a 10 mg/L phthalocyanine solution. The prepared solution was put into a 1 cm×1 cm cell made of PYREX (registered trademark), and the absorption spectrum thereof was measured using a spectrophotometer (produced by Hitachi, Ltd.: Spectrophotometer U-3500).
The absorption spectrum measured as above was converted such that the absorbance became 1.0, that is, the transmittance became 10% at the maximum absorption wavelength in a near-infrared range, thereby obtaining a transmission spectrum. […] At 460 nm, the transmittance of the compound of the present invention was approximately the same as the transmittance of Comparative Examples 1 and 2.

maximum absorption [1]: 737.5 nm
gram absorption coefficient ([1]; at maximum absorption): 105000 mL/g/cm
Solubility to cyclopentanone (wt %) [2]: ≤1% wt %
Transmittance (%) 460 nm [3]: 97.8%
Transmittance (%) 610 nm [3]: 87.9%
Structure (SMILES): COCCCCCCCCc1ccc(CCCCCCCCOC)c2c1-c1nc-2nc2[n-]c(nc3nc(nc4[n-]c(n1)c1c(CCCCCCCCOC)ccc(CCCCCCCCOC)c41)-c1c(CCCCCCCCOC)ccc(CCCCCCCCOC)c1-3)c1c(CCCCCCCCOC)ccc(CCCCCCCCOC)c21.[O]=[V+2] [Comparative Example Compound (b), reference compound]
